Values quoted from earlier work in patent US20210236427A1, “Development of Lipid Matrix Granules with Incorporation of Polysaccharides for Effective Delivery of an Antimicrobial Essential Oil” (University of Manitoba, priority 2018, published 2021).

Test system: Brachyspira hyodysenteriae
Settings: in vitro; Vande Maele et al., 2016

Question: For `CCCCCCCCCCCC(=O)O` [lauric acid], which “minimum inhibitory concentration (MIC)” value is on record?
Answer: Its value is “less than 1.5 mM”.
